Assays:
rats with MCAO [1] = assay: Hole-board test (HBT) after MCAO; assay type: in vivo, Wistar rats
Protocol: (§1) A MCAO animal model was used to characterize the effects of compound 1 on the development and resolution of stroke. At the baseline, we performed the MRI and hole-board test before MCAO surgery. Once animals recovered after the surgery, we stratified them based on their background psycho-emotional status and performed a control MRI to access whether the occlusion was sufficient or not. […] From 24 h to day 7, the neurological status was assessed daily according to the neurological scale (mNSS). By the end of day 7, animals underwent MRI. In addition, MRI was performed on days 14 and 28 (Shceme 3)The hole-board test was repeated on days 10 and 24. The degree of motor function impairment, the deficit of exploratory behavior, and the recovery process were assessed in the beam walking test (BWT), which was performed twice on days 12 and 14. An open field test was carried out on days 16 and 26.
(§2) In the first experimental series, the following test systems were used: HBT (OpenScience, Russia), OFT (OpenScience), and LDT (OpenScience). The design for the second experimental series was as follows. All rat behavioral changes were evaluated during the four weeks after stroke simulation. […] General neurological disorders were assessed using the modified neurological severity score (mNSS). Motor and cognitive impairment were evaluated using the following functional tests: BWT (OpenScience), HBT (OpenScience), and OFT (OpenScience). […] In this test, motor dysfunction in all four limbs was evaluated; specifically, the number of steps, errors, and slides were counted. The overall score was calculated using the following formula: score = errors + 0.5 × slides × 100/total number of steps [47]. […]
(§3) The HBT was performed on postoperative days 10 and 24. In this test, the following parameters were assessed: orientational and motor activity (horizontal activity, arbitrary units: number of crossings; vertical activity, arbitrary units: number of head dips), anxiety level (immobility and grooming time and number of grooming and immobility events), and the number of central sector crossings. […]

rats with MCAO [2] = assay: Open field test (OFT) after MCAO; assay type: in vivo, Wistar rats
Protocol: as §1, §2, §3

[3] = system: patients with cerebral ischemia-induced short-term memory/cognitive deterioration; conditions: after piracetam; cited from earlier work

SMILES	Orientational activity (HBT) (rats with MCAO [1]; day 10)	Freezing time (HBT) (rats with MCAO [1]; days 10 and 24)	Total locomotor activity (HBT) (rats with MCAO [1]; days 10 and 24)	Locomotor activity (OFT) (rats with MCAO [2])	Immobility time (OFT) compared to the saline and piracetam groups (rats with MCAO [2]; day 16)	Number of crossed areas (OFT) (rats with MCAO [2]; day 16)	Patients who improved their memory and cognitive functions [3]
O=C(CN1CC(c2ccccc2)CC1=O)NCCS(=O)(=O)[O-].[K+] (stereo not shown) [Compound 1, potassium 2-[2-(2-oxo-4-phenylpyrrolidin-1-yl)acetamido]ethane-1-sulfonate]	escalation	decreased	significantly increased	higher	lower	statistically significant increase	–
NC(=O)CN1CCCC1=O [Piracetam, reference compound]	–	–	–	–	–	–	around 25%

Reference: article PMC8541353, “A Novel Phenylpyrrolidine Derivative: Synthesis and Effect on Cognitive Functions in Rats with Experimental Ishemic Stroke” (Molecules, 2021)
